# From patent publication US4490365A, “Defleecing compounds” (Commonwealth Scientifique & Industrial Research Organization, priority 1980, dated 1984)
# What was measured:
# [1] = system: Adult Merino wethers; test: Wool harvested from tattooed midside area after subcutaneous infusion (wool growth); type: in vivo, sheep
# Method: (§1) Wethers were prepared for infusion experiments by the insertion of a polythene catheter below the skin so that the orifice lay near the centre of a 10×10 cm tattooed side on the right midside region of the body. The defleecing agent was dissolved in sterile saline solution and infused using a Harvard pump delivering a volume of 0.030 ml/min. Control animals were infused with saline solution alone.
# Recovery to preinfusion growth levels was observed 2 weeks later. At lower dose levels wool growth inhibition was noticeably less, the maximum recorded effect being about 80% inhibition of wool growth. This occurred about 4 weeks after infusion, but normal wool growth was attained about 2 weeks later.
# [2] = system: new born mice; conditions: injected into new born mice; cited from earlier work
# [3] = system: Adult Merino wethers; test: Subcutaneous infusion in sheep: staple plucking force and defleecing result; type: in vivo; conditions: for Plucking Force day 7: day 7 (in day 9 column)
# Source text: One way of defining the extent of wool fibre weakening is by reference to the plucking force (Newtons/ktex, or N/ktex) required to remove the fleece. Methods for making this measurement are described by A. J. Gordon, Aust. J. of Exp. Agric. Anim. Husb. 20, 40-49, and Moore et al, Search. 12, 128-129.
# Adult Merino wethers were housed under cover in individual pens or metabolic cages. The animals were offered a maintenance ration of 600 g of a pelleted mixture of 60% lucerne and 40% oats as one meal daily. Drinking water was provided ad lib.
# as §1
# [4] = Radioimmunoassay of plasma EGF correlated with plucking force; type: in vivo, sheep
# Method: During the course of the above trails blood samples were taken from selected animals at approximately 1/2 hour intervals after the start of treatment. A correlation between radioimmunoassay determinations of plasma concentrations EGF and forces subsequently required to pluck wool from the skin of the sheep, pointed to the desirability of establishing a plasma concentration EGF of at least about 10 ng/ml for a period of at least about 15 hrs. in order to modify wool growth sufficiently for the fleece to be easily removed by hand.
# [5] = sheep 1, 36.3 kg, EGF dose total 27.5, 1.86 mg/kg^0.75, s.c. infusion 66 hr
# [6] = sheep 3, 41.0 kg, EGF dose total 11.7, 0.74 mg/kg^0.75, s.c. infusion 28 hr
# [7] = sheep 4, EGF dose total 11.7, s.c. infusion 28 hr
# [8] = sheep 5, EGF dose total 10.0, s.c. infusion 28 hr
# [9] = sheep 7, 49.0 kg, EGF dose total 5.8, 0.32 mg/kg^0.75, s.c. infusion 28 hr
# [10] = sheep 8, 47.6 kg, EGF dose total 4.7, 0.26 mg/kg^0.75, s.c. infusion 28 hr
# [11] = sheep 9, 47.4 kg, EGF dose total 4.7, 0.26 mg/kg^0.75, s.c. infusion 28 hr
# [12] = sheep 10, 42.0 kg, EGF dose total 4.7, 0.28 mg/kg^0.75, s.c. infusion 26.5 hr
# [13] = sheep 12, 45.4 kg, EGF dose total 2.9, 0.17 mg/kg^0.75, s.c. infusion 28 hr
# [14] = sheep 13, 30.6 kg, EGF dose total 2.4, 0.19 mg/kg^0.75, s.c. infusion 25 hr
# [15] = sheep 14, 29.4 kg, EGF dose total 2.0, 0.16 mg/kg^0.75, s.c. infusion 26.5 hr
# [16] = sheep 16, EGF dose total 1.0, s.c. infusion 28 hr
# [17] = sheep 17, 40.8 kg, EGF dose total 1.0, 0.06 mg/kg^0.75, s.c. infusion 28 hr
# [18] = sheep 19, 31.8 kg, EGF dose total 5.0, 0.37 mg/kg^0.75, s.c. infusion 7 hr
# [19] = sheep 20, 41.0 kg, EGF dose total 5.0, 0.31 mg/kg^0.75, s.c. infusion 7 hr
# [20] = sheep 21, 41.9 kg, EGF dose total 5.0, 0.30 mg/kg^0.75, s.c. infusion 7 hr
# [21] = sheep 22, 45.0 kg, EGF dose total 5.0, 0.29 mg/kg^0.75, s.c. infusion 7 hr
# [22] = sheep 23, 50.6 kg, EGF dose total 5.0, 0.26 mg/kg^0.75, s.c. infusion 7 hr
# [23] = sheep 24, 28.6 kg, EGF dose total 2.4, 0.20 mg/kg^0.75, s.c. infusion 48 hr
# [24] = sheep 25, 28.4 kg, EGF dose total 2.4, 0.19 mg/kg^0.75, s.c. infusion 48 hr
# [25] = sheep 26, 42.0 kg, EGF 1-45 dose total 4.9, 0.30 mg/kg^0.75, s.c. infusion 26.5 hr
# [26] = sheep 27, EGF 1-45 dose total 1.0, s.c. infusion 28 hr
substance,measurement,setting,value
EGF: polypeptide of 53 amino acids prepared from the submaxillary glands of adult male mice,Wool production,"[1]; 0.74 and 1.86 mg EGF/kg^0.75, 2 weeks after the start of infusion",declined to near zero
same,Time to recovery to preinfusion growth levels,"[1]; 0.74 and 1.86 mg EGF/kg^0.75, counted after the near-zero point (2 weeks after start)",2 weeks
same,Time of maximum wool growth inhibition after infusion,[1]; lower dose levels,about 4 weeks
same,Time to normal wool growth after maximum inhibition,[1]; lower dose levels,about 2 weeks
same,Maximum inhibition of wool growth,[1]; lower dose levels (below 0.74 mg EGF/kg^0.75),about 80%
same,Effect on body growth rate and hair growth,[2],can inhibit body growth rate and hair growth
same,Fleece removal,[3]; s.c. infusion at rates as low as 0.16 mg EGF/kg^0.75,consistently allowed fleece to be easily removed
same,Time to casting of the whole fleece,[3]; s.c. infusion of amounts greater than about 0.25 mg EGF/kg^0.75,≤ 7 days
same,Fleece result,[3]; s.c. infusions less than 0.25 mg EGF/kg^0.75,fleeces were retained but staples could easily be removed by hand
same,Plucking Force day 1,[3]; [5],12.2 N/ktex
same,Plucking Force day 9,[3]; [5],0.1 N/ktex
same,Result,[3]; [5],Fleece cast
same,Plucking Force day 1,[3]; [6],8.9 N/ktex
same,Plucking Force day 9,[3]; [6],0 N/ktex
same,Result,[3]; [6],Fleece cast
same,Plucking Force day 1,[3]; [7],3.4 N/ktex
same,Result,[3]; [7],Fleece cast
same,Plucking Force day 7,[3]; [7],0.3 N/ktex
same,Plucking Force day 1,[3]; [8],4.1 N/ktex
same,Result,[3]; [8],Fleece cast
same,Plucking Force day 7,[3]; [8],0.2 N/ktex
same,Plucking Force day 1,[3]; [9],7.5 N/ktex
same,Plucking Force day 9,[3]; [9],0.4 N/ktex
same,Result,[3]; [9],Fleece cast
same,Plucking Force day 1,[3]; [10],21.3 N/ktex
same,Plucking Force day 9,[3]; [10],2.1 N/ktex
same,Result,[3]; [10],Fleece cast
same,Plucking Force day 1,[3]; [11],12.5 N/ktex
same,Plucking Force day 9,[3]; [11],1.4 N/ktex
same,Result,[3]; [11],Fleece cast
same,Plucking Force day 1,[3]; [12],7.6 N/ktex
same,Plucking Force day 9,[3]; [12],0.1 N/ktex
same,Result,[3]; [12],Fleece cast
same,Plucking Force day 1,[3]; [13],6.6 N/ktex
same,Plucking Force day 9,[3]; [13],0.6 N/ktex
same,Result,[3]; [13],Weakened fibre
same,Plucking Force day 1,[3]; [14],11.3 N/ktex
same,Plucking Force day 9,[3]; [14],2.1 N/ktex
same,Result,[3]; [14],Weakened fibre
same,Plucking Force day 1,[3]; [15],9.3 N/ktex
same,Plucking Force day 9,[3]; [15],1.5 N/ktex
same,Result,[3]; [15],Weakened fibre
same,Plucking Force day 1,[3]; [16],5.5 N/ktex
same,Plucking Force day 9,[3]; [16],3.6 N/ktex
same,Result,[3]; [16],Weakened fibre
same,Plucking Force day 1,[3]; [17],10.6 N/ktex
same,Plucking Force day 9,[3]; [17],8.7 N/ktex
same,Result,[3]; [17],No effect
same,Plucking Force day 1,[3]; [18],7.0 N/ktex
same,Plucking Force day 9,[3]; [18],0.4 N/ktex
same,Result,[3]; [18],Fleece cast
same,Plucking Force day 1,[3]; [19],17.9 N/ktex
same,Plucking Force day 9,[3]; [19],1.0 N/ktex
same,Result,[3]; [19],Fleece cast
same,Plucking Force day 1,[3]; [20],11.4 N/ktex
same,Plucking Force day 9,[3]; [20],0.8 N/ktex
same,Result,[3]; [20],Fleece cast
same,Plucking Force day 1,[3]; [21],9.0 N/ktex
same,Plucking Force day 9,[3]; [21],1.0 N/ktex
same,Result,[3]; [21],Fleece cast
same,Plucking Force day 1,[3]; [22],12.7 N/ktex
same,Plucking Force day 9,[3]; [22],2.8 N/ktex
same,Result,[3]; [22],Fleece cast
same,Plucking Force day 1,[3]; [23],14.8 N/ktex
same,Plucking Force day 9,[3]; [23],3.2 N/ktex
same,Result,[3]; [23],Weakened fibre
same,Plucking Force day 1,[3]; [24],11.7 N/ktex
same,Plucking Force day 9,[3]; [24],2.4 N/ktex
same,Result,[3]; [24],Weakened fibre
same,Period of plasma concentration needed for fleece to be easily removed by hand,[4]; at plasma EGF of at least about 10 ng/ml,at least 15 hrs
same,Plasma concentration EGF needed for fleece to be easily removed by hand,"[4]; radioimmunoassay, correlated with plucking force",at least 10 ng/ml
"EGF 1-45: derivative prepared by tryptic digestion of the intact EGF peptide (NSYPGCPSSYDGYCLNGGVCMHIESLDSYTCNCVIGYSGDRCQTR; not fully specified; Epidermal growth factor; UniProt P01132 977-1021, looked up, fragment)",Infusion results compared with EGF,[3]; s.c. infusion,closely similar results
same,Plucking Force day 1,[3]; [25],5.6 N/ktex
same,Plucking Force day 9,[3]; [25],0.3 N/ktex
same,Result,[3]; [25],Fleece cast
same,Plucking Force day 1,[3]; [26],4.1 N/ktex
same,Plucking Force day 9,[3]; [26],3.1 N/ktex
same,Result,[3]; [26],Weakened fibre
